Experimental data published in patent US7687651B2, “Method for the preparation of trans-or cis-diammoniumdichlorodihydroxoplatinum(IV) and the use thereof in the production of pharmaceutical active substances” (priority 2003, dated 2010).
Each block holds one compound with its values, some of them ahead of it.

Key:
Format in all cases: cell-based, human
JVSO Melanoma = experiment: Growth inhibition test on JVSO cells; conditions: Table 1
Method: (§1) Growth inhibition tests on various human cell lines show the different activities of cisplatin, cis-oxoplatin and oxaliplatin. […] The following Table illustrates the results produced with cisplatin, oxoplatin, carboplatin and oxaliplatin (the values specified are IC50 values in μg/ml, i.e., the concentration where 50% of the cells survive, nd=not determined; res=resistant=non-sensitive or IC50 value cannot be determined at a concentration of up to 40 μg/ml; IC=inhibition concentration).

A498 Renal cells = experiment: Growth inhibition test on A498 cells; conditions: Table 1
Method: as §1

[1] = test system: MiaPaCa2 Pancreatic cancer; experiment: Growth inhibition test on MiaPaCa2 cells; conditions: Table 1
Method: as §1

HOS Osteosarcoma = experiment: Growth inhibition test on HOS cells; conditions: Table 1
Method: as §1

M518 Melanoma = experiment: Growth inhibition test on M518 cells; conditions: Table 1
Method: as §1

MCF-7 Breast cancer = experiment: Growth inhibition test on MCF-7 cells; conditions: Table 1
Method: as §1

M607 Melanoma = experiment: Growth inhibition test on M607 cells; conditions: Table 1
Method: as §1

HCT8 Colon carcinoma = experiment: Growth inhibition test on HCT8 cells; conditions: Table 1
Method: as §1

HT29 Colon carcinoma = experiment: Growth inhibition test on HT29 cells
Method: (§2) The effect of cis-oxoplatin Ca and cis-oxoplatin was compared on 10 cell lines (Table 4).
(§3) (IC50 values specified in μg/ml; the test was performed as a formazan test).

Panc1 Pancreatic cancer = experiment: Growth inhibition test on Panc1 cells; conditions: Table 1
Method: as §1

Colo205 Colon carcinoma = experiment: Growth inhibition test on Colo205 cells
Method: as §2, §3

C320DM Colon carcinoma = experiment: Growth inhibition test on C320DM cells; conditions: Table 1
Method: as §1

Me128 Melanoma = experiment: Growth inhibition test on Me128 cells; conditions: Table 1
Method: as §1

CC1227 Colon carcinoma = experiment: Growth inhibition test on CC1227 cells; conditions: Table 1
Method: as §1

SaOS Osteosarcoma = experiment: Growth inhibition test on SaOS cells; conditions: Table 1
Method: as §1

PC3 Prostate = experiment: Growth inhibition test on PC3 cells; conditions: for IC50: PC3 Prostate; for % Survival: PC3 cells
Method: as §1

HCT-15 Colon carcinoma = experiment: Growth inhibition test on HCT-15 cells; conditions: Table 1
Method: as §1

BxPC3 Pancreatic cancer = experiment: Growth inhibition test on BxPC3 cells
Method: as §2, §3

T47D Breast cancer = experiment: Growth inhibition test on T47D cells
Method: as §2, §3

U 373 MG Astrocytoma = experiment: Growth inhibition test on U 373 MG cells; conditions: Table 2
Method: as §1

CaCo-2 Colon = experiment: Growth inhibition test on CaCo-2 cells; conditions: for IC50: CaCo-2 Colon
Method: as §2, §3

CRO2B Carcinoid = experiment: Growth inhibition test on CRO2B cells; conditions: for IC50: CRO2B Carcinoid
Method: as §2, §3

SIM Sarcoma = experiment: Growth inhibition test on SIM cells
Method: as §1
What is seen primarily in children are leukemias, neuroblastomas and Ewing's sarcoma/peripheral neuroectodermal tumors (group of the Ewing family of tumors=EFT). The investigated tumor cell lines include three EFTs (EW-7, SIM and KAL), as well as two neuroblastoma cell lines (NB: LAN1 and LAN5; Los Angeles neuroblastoma=LAN) (see Table 3).

[2] = test system: HT29, SW480, SK-OV4, PC3, SIM, CaCO-2, DU145 and CRO2B cells; experiment: Growth inhibition, IC50 over eight cell lines of Table 2; conditions: CaCO-2, DU145, CRO2B
Method: as §1
The activities differ according to the cell line.

SW480 Colon = experiment: Growth inhibition test on SW480 cells; conditions: for IC50: SW480 Colon
Method: as §2, §3

SK-OV4 Ovarian cancer = experiment: Growth inhibition test on SK-OV4 cells
Method: as §1

SK-OV3 Ovarian cancer = experiment: Growth inhibition test on SK-OV3 cells; conditions: Table 2
Method: as §1

Du145 Prostate = experiment: Growth inhibition test on Du145 cells; conditions: for IC50: Du145 Prostate
Method: as §2, §3

10 cell lines (Table 4) = experiment: Formazan test, IC50 mean value for all cell lines of Table 4; conditions: mean over the 10 cell lines of Table 4
Method: as §2, §3

BT20 Breast = experiment: Formazan test on BT20 cells; conditions: Table 4
Method: as §2, §3

MDA-MB-435 Breast = experiment: Formazan test on MDA-MB-435 cells; conditions: Table 4
Method: as §2, §3

[3] = Table 1, Colo205 Colon carcinoma
[4] = Table 1, BxPC3 Pancreatic cancer

Compound: N.N.O=C([O-])C1(C(=O)[O-])CCC1.[Pt+2] [Carboplatin, carboplatin]
IC50 (JVSO Melanoma): res (res=resistant=non-sensitive or IC50 value cannot be determined at a concentration of up to 40 μg/ml)
IC50 (A498 Renal cells): res (res=resistant=non-sensitive or IC50 value cannot be determined at a concentration of up to 40 μg/ml)
IC50 [1]: 5 µg/mL
IC50 (HOS Osteosarcoma): 5 µg/mL
IC50 (M518 Melanoma): res (res=resistant=non-sensitive or IC50 value cannot be determined at a concentration of up to 40 μg/ml)
IC50 (MCF-7 Breast cancer): res (res=resistant=non-sensitive or IC50 value cannot be determined at a concentration of up to 40 μg/ml)
IC50 (M607 Melanoma): 10 µg/mL
IC50 (HCT8 Colon carcinoma): res (res=resistant=non-sensitive or IC50 value cannot be determined at a concentration of up to 40 μg/ml)
IC50 (HT29 Colon carcinoma; Table 1, HT29 Colon carcinoma): 20 µg/mL
IC50 (Panc1 Pancreatic cancer): 20 µg/mL
IC50 (Colo205 Colon carcinoma; [3]): res (res=resistant=non-sensitive or IC50 value cannot be determined at a concentration of up to 40 μg/ml)
IC50 (C320DM Colon carcinoma): 10 µg/mL
IC50 (Me128 Melanoma): 10 µg/mL
IC50 (CC1227 Colon carcinoma): res (res=resistant=non-sensitive or IC50 value cannot be determined at a concentration of up to 40 μg/ml)
IC50 (SaOS Osteosarcoma): 5 µg/mL
IC50 (PC3 Prostate; Table 1): 10 µg/mL
IC50 (HCT-15 Colon carcinoma): res (res=resistant=non-sensitive or IC50 value cannot be determined at a concentration of up to 40 μg/ml)
IC50 (BxPC3 Pancreatic cancer; [4]): 10 µg/mL

Compound: N.N.[Cl][Pt][Cl] [Cisplatin, cisplatin]
IC50 (JVSO Melanoma): 40 µg/mL
IC50 (A498 Renal cells): 1 µg/mL
IC50 [1]: 1.5 µg/mL
IC50 (M518 Melanoma): 40 µg/mL
IC50 (MCF-7 Breast cancer): 2.5 µg/mL
IC50 (M607 Melanoma): 0.3 µg/mL
IC50 (HCT8 Colon carcinoma): 5 µg/mL
IC50 (HT29 Colon carcinoma; Table 1, HT29 Colon carcinoma): 0.3 µg/mL
IC50 (Panc1 Pancreatic cancer): 1 µg/mL
IC50 (Colo205 Colon carcinoma; [3]): 10 µg/mL
IC50 (C320DM Colon carcinoma): 0.3 µg/mL
IC50 (Me128 Melanoma): 0.3 µg/mL
IC50 (CC1227 Colon carcinoma): 0.3 µg/mL
IC50 (PC3 Prostate; Table 1): res (res=resistant=non-sensitive or IC50 value cannot be determined at a concentration of up to 40 μg/ml)
IC50 (T47D Breast cancer; Table 1, T47D Breast cancer): 0.3 µg/mL
IC50 (HCT-15 Colon carcinoma): 0.3 µg/mL
IC50 (BxPC3 Pancreatic cancer; [4]): 0.6 µg/mL

Compound: O=C1[O][Pt]2([NH][C@@H]3CCCC[C@H]3[NH]2)[O]C1=O [Oxaliplatin, oxaliplatin]
IC50 (JVSO Melanoma): res (res=resistant=non-sensitive or IC50 value cannot be determined at a concentration of up to 40 μg/ml)
IC50 (A498 Renal cells): 10 µg/mL
IC50 [1]: 5 µg/mL
IC50 (M518 Melanoma): res (res=resistant=non-sensitive or IC50 value cannot be determined at a concentration of up to 40 μg/ml)
IC50 (MCF-7 Breast cancer): res (res=resistant=non-sensitive or IC50 value cannot be determined at a concentration of up to 40 μg/ml)
IC50 (M607 Melanoma): 10 µg/mL
IC50 (HCT8 Colon carcinoma): res (res=resistant=non-sensitive or IC50 value cannot be determined at a concentration of up to 40 μg/ml)
IC50 (HT29 Colon carcinoma; Table 1, HT29 Colon carcinoma): 20 µg/mL
IC50 (Panc1 Pancreatic cancer): 5 µg/mL
IC50 (Colo205 Colon carcinoma; [3]): 1 µg/mL
IC50 (C320DM Colon carcinoma): 0.15 µg/mL
IC50 (Me128 Melanoma): 10 µg/mL
IC50 (CC1227 Colon carcinoma): 0.2 µg/mL
IC50 (T47D Breast cancer; Table 1, T47D Breast cancer): 0.1 µg/mL
IC50 (HCT-15 Colon carcinoma): 10 µg/mL
IC50 (BxPC3 Pancreatic cancer; [4]): 10 µg/mL

Compound: [NH2][Pt]([NH2])([O-])([O-])([Cl])[Cl].[Na+].[Na+] [cis-Oxoplatin sodium salt, cis-diammoniumdichlorodihydroxoplatinum(IV) Disodium Salt]
IC50 (U 373 MG Astrocytoma): 18 µg/mL
efficiency compared with cis-oxoplatin (CaCo-2 Colon; CaCO-2, Na salt versus cis-oxoplatin): less efficient
IC50 (CaCo-2 Colon; Table 2): 2.22 µg/mL
efficiency compared with cis-oxoplatin (CRO2B Carcinoid; CRO2B, Na salt versus cis-oxoplatin): less efficient
IC50 (CRO2B Carcinoid; Table 2): 10.1 µg/mL
more effective than cis-oxoplatin (SIM Sarcoma; SIM, Na salt versus cis-oxoplatin): about 30%
IC50 (SIM Sarcoma; Table 2, SIM Sarcoma): 11.2 µg/mL
more effective than cis-oxoplatin (HT29 Colon carcinoma; HT29, Na salt versus cis-oxoplatin): about 70%
IC50 (HT29 Colon carcinoma; Table 2, HT29 Colon): 4.55 µg/mL
more effective than cis-oxoplatin (PC3 Prostate; PC3, Na salt versus cis-oxoplatin): about 30%
% Survival (PC3 Prostate; Conc. 5 μg/ml): 109.3 ± 9.1%
% Survival (PC3 Prostate; Conc. 10 μg/ml): 77.7 ± 2.4%
% Survival (PC3 Prostate; Conc. 20 μg/ml): 33.2 ± 3.0%
% Survival (PC3 Prostate; Conc. 40 μg/ml): 0.6 ± 0.5%
IC50 (PC3 Prostate; Table 2): 5.3 µg/mL
IC50 values of these cells (mean ± spread) [2]: 9.5 ± 8 µg/mL
more effective than cis-oxoplatin (SW480 Colon; SW480, Na salt versus cis-oxoplatin): about 70%
IC50 (SW480 Colon; Table 2): 2.5 µg/mL
IC50 (T47D Breast cancer; Table 2, T47D Breast cancer): 18 µg/mL
more effective than cis-oxoplatin (SK-OV4 Ovarian cancer; SK-OV4, Na salt versus cis-oxoplatin): about 30%
IC50 (SK-OV4 Ovarian cancer; Table 2, SK-OV4 Ovarian cancer): 12.8 µg/mL
IC50 (SK-OV3 Ovarian cancer): 22 µg/mL
IC50 (BxPC3 Pancreatic cancer; Table 2, BxPC3 Pancreatic carcinoma): 12 µg/mL
efficiency compared with cis-oxoplatin (Du145 Prostate; DU145, Na salt versus cis-oxoplatin): less efficient
IC50 (Du145 Prostate; Table 2): 27.0 µg/mL

IC50 (CaCo-2 Colon; Table 4, formazan test): 0.87 µg/mL
IC50 (±SEM) mean value for all cell lines (10 cell lines (Table 4)): 9.1 ± 2.8 µg/mL
IC50 (BT20 Breast): 3.5 µg/mL
IC50 (HT29 Colon carcinoma; Table 4, HT29 Colon, formazan test): 8.0 µg/mL
IC50 (Colo205 Colon carcinoma; Table 4, Colo205 Colon, formazan test): 13.5 µg/mL
IC50 (SW480 Colon; Table 4, formazan test): 2.5 µg/mL
IC50 (MDA-MB-435 Breast): 12.0 µg/mL
IC50 (T47D Breast cancer; Table 4, T47D Breast, formazan test): 3.6 µg/mL
IC50 (BxPC3 Pancreatic cancer; Table 4, BxPC3 Pancreas, formazan test): 30.0 µg/mL
IC50 (Du145 Prostate; Table 4, formazan test): 14.5 µg/mL
Compound: cis-diammoniumdichlorodihydroxoplatinum(IV) Calcium Salt [Oxoplatin Ca]
IC50 (CRO2B Carcinoid; Table 4, formazan test): 2.20 µg/mL
